From US20160243015A1, “SKIN LIGHTENING COMPOSITION” (Conopco, Inc., d/b/a UNILEVER, priority 2013, published 2016)

Legend:
human tyrosinase enzyme = molecular target: T1, human tyrosinase enzyme (Homo sapiens, UniProt P14679); assay: Tyrosinase inhibition assay (melanocyte lysate, L-DOPA/MBTH); format: biochemical
T1 construct: Human neonatal darkly pigmented melanocytes lysate was used as a source of tyrosinase enzyme; host or cells: human neonatal darkly pigmented melanocytes (crude NP-40 lysate supernatant)
T1 sequence (P14679 19-529): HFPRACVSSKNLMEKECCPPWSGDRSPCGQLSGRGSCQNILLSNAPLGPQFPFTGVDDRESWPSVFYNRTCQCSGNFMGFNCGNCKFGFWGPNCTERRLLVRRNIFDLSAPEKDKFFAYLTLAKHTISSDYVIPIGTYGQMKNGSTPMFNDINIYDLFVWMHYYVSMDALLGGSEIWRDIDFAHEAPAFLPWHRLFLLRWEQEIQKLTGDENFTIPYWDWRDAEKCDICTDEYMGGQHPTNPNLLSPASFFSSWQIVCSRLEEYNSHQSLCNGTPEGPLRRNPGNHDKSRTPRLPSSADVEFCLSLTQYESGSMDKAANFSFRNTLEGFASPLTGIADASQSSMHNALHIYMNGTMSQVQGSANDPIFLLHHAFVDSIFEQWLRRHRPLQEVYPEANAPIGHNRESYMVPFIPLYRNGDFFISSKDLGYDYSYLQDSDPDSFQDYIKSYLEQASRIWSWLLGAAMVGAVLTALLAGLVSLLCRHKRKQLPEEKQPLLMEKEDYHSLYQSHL
Description: Human neonatal darkly pigmented melanocytes lysate was used as a source of tyrosinase enzyme. The human melanocyte cells were purchased from Cascade Biologics (Code: C-202-5C) and cultured using standard methods. A confluent 25 cm^2 flask of melanocytes was washed with 2 ml of ice-cold PBS (phosphate buffered saline), followed by incubation with 1 ml of (0.025% w/v) Trypsin (0.01% w/v) EDTA (ethylenediamine tetraacetic acid) solution for 2 minutes at 37° C. to release the adherent cells. Trypsin was neutralized by the addition of 3 ml ‘neutralizer’ solution (sterile PBS solution containing 0.5% w/vnewborn bovine serum). […] The protein content in the lysate was measured by the Bradford reagent method (bovine serum albumin standard). […]
The solution phase tyrosinase activity assay was initiated by mixing 50 μl of 50 mM potassium phosphate buffer (pH 6.8), 60 μl of 10 mM MBTH (3-Methyl-2-benzothiazolinonhydrazon hydrochloride hydrate) in 10 mM potassium phosphate buffer, 30 μl of 10 mM L-DOPA (L-3,4-dihydroxyphenylalanine) in 10 mM potassium phosphate buffer, 4 μl of melanocytic cell extract (about 2 μg/μl protein), and 6 μl of distilled water (to make up the volume to 150 μl), and incubated for about 1 hour at 37° C. […] Then 200 μl of the supernatant was transferred to a 96-well flat-bottom plate, and the OD (optical density) read in a TECAN plate-reader (540 nm transmission). […]

[1] = system: Melanoderm cultures (human keratinocytes and melanocytes), melanin production; assay: Assay of pigment production by Living Skin Equivalents (Melanoderm); format: cell-based; parameters: inhibition: dose or concentration left out as unconfirmed; settings: 14 days, melanin normalized to protein levels; for % inhibition of melanin production compared to vehicle control: 10 μM; for inhibition: Homo sapiens, 336 h, read-out: % inhibition of melanin production compared to vehicle control
Description: Assay of pigment production by Living Skin Equivalents (Melanoderms™)
So called reconstructed pigmented ‘skin’ cultures containing keratinocytes and melanocytes are commercially available and, for example, can be purchased from MatTek Corp, 200, Homer Avenue, Ashland, Mass., USA, under the trade name Melanoderm™. Melanoderms™ (catalogue reference MEL-300) containing melanocytes from […] donor skin were maintained in EPI-100-NMM113 media following the manufacturer's instructions and using standard methods for the maintenance of cultured mammalian cells under aseptic conditions. The Melanoderm™ cultures were treated with test agents for a total of 14 days. During the 14 day culture period the melanocytes in the Melanoderm™ cultures synthesise melanin in specialised vesicular structures called melanosomes. The pigmented melanosomes are transferred to the adjacent keratinocytes and the transferred-melanosomes tend to accumulate over the nucleus of the keratinocytes. This process is the same as occurs in skin in vivo and accordingly the Melanoderm™ culture is considered to be a very good test ‘skin tissue’ to mimic the effect of the skin pigmentation process in vivo. A compound that leads to a reduction in melanin production in the Melanoderm™ culture over 14 days by 10% or more is considered to have a positive pigment reducing effect. It is important that the reduction in pigment occurs without substantive loss of cell viability such that the inhibitory effect of the test compound is due to its biological function rather than due to cell toxicity.
Culture media changes and re-dosing of compounds at selected concentrations took place every 2 or 3 days during the test period. Melanoderm™ cultures were also treated with control materials including the vehicle (dimethylsulphoxide (DMSO)) used to dissolve the test material and a positive control material known to lead to the synthesis of reduced amounts of melanin in the cultures. 4-ethylresorcinol was used as a positive control. After 14 days culture, transmitted-light microscopy images were captured for every culture using a Leica DM IL microscope at ×20 magnification.
The cell viability of the cultures was assessed using the so called WST-1 (Water Soluble Tetrazolium Salt-1) assay purchased from Roche Applied Science and following the manufacturer's instructions. The stable tetrazolium salt WST-1 is cleaved to a soluble formazan dye by a complex cellular mechanism that occurs primarily at the cell surface. This bioreduction is largely dependent on the glycolytic production of NADPH in viable cells. Therefore, the amount of soluble formazan dye formed in the culture medium directly correlates to the number of metabolically active cells in the culture. Cultures were incubated with WST-1 in the medium for 1 hour and production of formazan measured at 450 nm using a spectrophotometer plate reader, e.g. a BMG Labtech FLUOstar plate reader. Cultures were considered ‘viable’ if they generated greater than 80% of the control value of formazan product. Subsequently the culture was washed briefly in phosphate buffer solution (PBS) and total melanin and protein extracted together from each culture using 250 μl Solvable™ (Perkin Elmer product 6NE9100) reagent at 60° C. overnight as recommended by the manufacturer. The total protein content using a sample of the extracts was determined using the so called BCA (bicinchoninic acid) assay. The BCA assay may be purchased from Pierce Chemical Company and conducted following the manufacturer's instructions. Melanin was determined by measuring the absorbance at 485 nm, for example using a BMG Labtech FLUOstar plate reader. The amount of melanin extracted from each culture was determined by reference to a standard synthetic-melanin curve (Sigma Aldrich Chemical Company catalogue reference M8631). […]

Q: Which inhibition at 10 µM (human tyrosinase enzyme) does the source give for `CCc1ccc(O)cc1O` [4-ethyl resorcinol] here?
A: 29%

Q: What does the source list for `O=C(COc1ccccc1)NC(=S)Nc1ccc(I)cn1` [NC-0475, N-[[(5-iodo-2-pyridinyl)-amino]-thioxomethyl]-2-phenoxyacetamide]?
A: % inhibition of melanin production compared to vehicle control [1]: 53%; inhibition [1]: > 50%

Q: How did the “% inhibition of melanin production compared to vehicle control” value (shortened to “% inhibition of melanin production”) [1] turn out when `O=C(COc1ccccc1)NC(=S)Nc1ccc(Cl)cn1` [S12, N-[[(5-chloro-2-pyridinyl)-amino]-thioxomethyl]-2-phenoxyacetamide] was run?
A: 47%

Q: What about the inhibition [1] of the same compound?
A: 40 to 50%

Q: What does the source list for `Cc1ccc(OCC(=O)NC(=S)Nc2ccc(Cl)cn2)cc1` [S13, N-[[(5-chloro-2-pyridinyl)-amino]-thioxomethyl]-2-(4-methylphenoxy)-acetamide]?
A: % inhibition of melanin production compared to vehicle control [1]: 35%; inhibition [1]: 30 to 40%

Q: `O=C(COc1ccccc1)NC(=S)Nc1ccccn1` [S14, N-[[2-pyridinylamino]-thioxomethyl]-2-phenoxyacetamide] was tested. Which inhibition [1] did it give?
A: 10%

Q: Which “% inhibition of melanin production” value [1] does the source give for `Cc1cc(OCC(=O)NC(=S)Nc2ccc(I)cn2)cc(C)c1Cl` [S15, N-[[(5-iodo-2-pyridinyl)-amino]-thioxomethyl]-2-(4-chloro-3,5-dimethylphenoxy)-acetamide] here?
A: 43%

Q: And the inhibition [1]?
A: 40 to 50%

Q: `CC(C)c1ccc(OCC(=O)NC(=S)Nc2ccc(Cl)cn2)cc1` [S16, N-[[(5-chloro-2-pyridinyl)-amino]-thioxomethyl]-2-[4-(1-methylethyl)-phenoxy]-acetamide] was tested. Which “% inhibition of melanin production” value [1] did it give?
A: 38%

Q: What about the inhibition [1] of the same compound?
A: 30 to 40%

Q: What does the source list for `O=C(COc1ccc(Cl)cc1Cl)NC(=S)Nc1ccc(I)cn1` [S17, N-[[(5-iodo-2-pyridinyl)-amino]-thioxomethyl]-2-(2,4-dichlorophenoxy)-acetamide]?
A: % inhibition of melanin production compared to vehicle control [1]: 43%; inhibition [1]: 40 to 50%

Q: With `O=C(COc1ccc(Cl)cc1)NC(=S)Nc1ccc(I)cn1` [S18, N-[[(5-iodo-2-pyridinyl)-amino]-thioxomethyl]-2-(4-chlorophenoxy)-acetamide] as the compound, how does the “% inhibition of melanin production” value [1] read?
A: 28%

Q: And the inhibition [1]?
A: 20 to 30%

Q: Which “% inhibition of melanin production” value [1] does the source give for `CC(C)(C)c1ccc(OCC(=O)NC(=S)Nc2ccc(I)cn2)cc1` [S19, N-[[(5-iodo-2-pyridinyl)-amino]-thioxomethyl]-2-[4-(1,1-dimethylethyl)phenoxy]-acetamide] here?
A: 22%

Q: And the inhibition [1]?
A: 20 to 30%

Q: Which results are given for `Cc1cccc(OCC(=O)NC(=S)Nc2ccc(I)cn2)c1` [S20, N-[[(5-iodo-2-pyridinyl)-amino]-thioxomethyl]-2-(3-methylphenoxy)-acetamide]?
A: % inhibition of melanin production compared to vehicle control [1]: 22%; inhibition [1]: 20 to 30%

Q: `Cc1nc(NC(=S)NC(=O)COc2ccccc2)ccc1I` [S21, N-[[(5-iodo-6-methyl-2-pyridiny)lamino]-thioxomethyl]-2-phenoxyacetamide] was tested. Which “% inhibition of melanin production” value [1] did it give?
A: 39%

Q: And the inhibition [1]?
A: 30 to 40%
